The values below come from patent US6395737B1, “Malonic acid derivatives, processes for their preparation, for their use and pharmaceutical compositions containing them” (Aventis Pharma Deutschland GmbH, priority 1999, dated 2002).

Structures can show the parent of a compound that is named as a salt. Where two headings read alike, the source gives them in different places.

For series [1], the target named is T1, factor Xa (Homo sapiens, UniProt P00742). The experiment in a line: In vitro Factor Xa assay (Test 1a), chromogenic substrate S-2765. It counts as biochemical. Also noted: purchased Enzyme Research Laboratories, Inc; South Bend, Ind. Particulars: Factor Xa inhibitory activity; Ki from IC50 corrected for substrate competition; 0.5 nM enzyme, 140 μM S-2765, 25° C. An excerpt:
The ability of a compound of formula I to inhibit factor Xa, thrombin, plasmin, elastase and trypsin may be assessed by determining the concentration of compound of formula I that inhibits enzyme activity by 50% (IC50). Purified enzymes are used in chromogenic assays. To determine the inhibition constant, the IC50 value is corrected for competition with substrate using the formula:
Ki=IC50×(1/{1+((substrate concentration)/substrate Km)})
where Km is the Michaelis-Menten-constant (Y.-C. Chen and W.H. Prusoff, Biochem. Pharmacol. 22: […] (1973), which is incorporated herein by reference).
TBS-PEG buffer (50 mM Tris-Cl, pH 7.8, 200 mM NaCl, 0.05% (w/v) PEG-8000, 0.02% (w/v) NaN3) is used for this assay. The IC50 is determined by combining in appropriate wells of a Costar half-area microtiter plate 25 μl human factor Xa (Enzyme Research Laboratories, Inc.; South Bend, Ind.) in TBS-PEG; 40 μl 10% (v/v) DMSO in TBS-PEG (uninhibited control) or various concentrations of the compound to be tested diluted in 10% (v/v) DMSO in TBS-PEG; and substrate S-2765 (N-benzyloxycarbonyl-D-Arg-Gly-L-Arg-p-nitroanilide; Kabi Pharmacia, Inc.; Franklin Ohio) in TBS-PEG.
The assays are performed by pre-incubating the compound of formula I plus enzyme for 10 min, then the assay is initiated by adding substrate to obtain a final volume of 100 μl. The initial velocity of chromogenic substrate hydrolysis is measured by the change in absorbance at 405 nm using a Bio-tek Instruments kinetic plate reader (Ceres UV900HDi) at 25° C. during the linear portion of the time course (usually 1.5 min after addition of substrate). The concentration of inhibitor that causes a 50% decrease in the rate of substrate hydrolysis is predicted by linear regression after plotting the relative rates of hydrolysis (compared to the uninhibited control) versus the log of the compound of formula I concentration. The enzyme concentration is 0.5 nM and substrate concentration is 140 μM.

Series [2] addresses T1, factor Xa. Particulars: cited from earlier work.
Series [3] relates to thrombin and factor Xa. Particulars: rate of inactivation, thrombin relative to factor Xa; cited from earlier work.

T1 sequence (P00742 235-488 limits assumed): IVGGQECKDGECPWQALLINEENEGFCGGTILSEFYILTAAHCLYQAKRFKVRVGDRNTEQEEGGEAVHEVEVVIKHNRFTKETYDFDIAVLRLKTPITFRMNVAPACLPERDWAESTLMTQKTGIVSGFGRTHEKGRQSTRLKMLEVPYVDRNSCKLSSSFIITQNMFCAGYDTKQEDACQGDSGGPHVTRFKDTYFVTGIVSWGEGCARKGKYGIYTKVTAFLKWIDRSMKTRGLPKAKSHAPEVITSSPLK
T1 sequence (P00742 41-179 partner limits assumed): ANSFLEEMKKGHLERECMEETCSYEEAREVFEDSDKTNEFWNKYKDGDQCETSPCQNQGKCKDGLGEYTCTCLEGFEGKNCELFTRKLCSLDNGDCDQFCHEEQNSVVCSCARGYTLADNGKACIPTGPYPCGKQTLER

Take `CC(C)(C)OC(=O)N1CCN(CCNC(=O)[C@@H](NC(=O)C(Cc2ccc(C(=N)N)cc2)C(=O)NCc2ccccc2)C2CCCCC2)CC1.O=C(O)C(F)(F)F` (stereo partly shown): the melting point (usually the temperature, or range, at which the solid turns liquid) lay within 125 to 128 °C.

As to `N=C(N)c1ccc(CC(C(=O)NCc2ccccc2)C(=O)N[C@H](C(=O)NCCN2CCNCC2)C2CCCCC2)cc1.O=C(O)C(F)(F)F` (stereo partly shown), the melting point is 196 °C (dec.).

Regarding `CN(C)C(=O)[C@@H](Cc1ccc(C(=N)N)cc1)C(=O)N[C@H](C(=O)NCC1CCN(C(=N)N)CC1)C1CCCCC1` [Example 113, 2-(S)-(4-Carbamimidoyl-benzyl)-N-{(S)-[(1-carbamimidoyl-piperidin-4-ylmethyl)-carbamoyl]-cyclohexyl-methyl}-N′,N′-dimethyl-malonamide hydrochloric acid salt, less polar diastereomer], in series [1], the affinity, expressed as Ki, was 3 nM.

As to `CN(C)C(=O)C(Cc1ccc(C(=N)N)cc1)C(=O)N[C@H](C(=O)NCC1CCC(C(=N)N)CC1)C1CCCCC1` (stereo partly drawn) [Example 116, 2-(4-Carbamimidoyl-benzyl)-N-{(S)-[(4-carbamimidoyl-cyclohexylmethyl)-carbamoyl]-cyclohexyl-methyl}-N′,N′-dimethyl-malonamide], the inhibitory constant (Ki) (commonly a dissociation constant, usually derived from enzyme kinetics or from competition with a known ligand) in series [1] is 2 nM.

`CN(C)C(=N)c1ccc(CC(C(=O)NC(C(=O)NCC2CCC(C(=N)N(C)C)CC2)C2CCCCC2)C(=O)N(C)C)cc1` [Example 120, N-(S)-(Cyclohexyl-{[4-(N,N-dimethyl-carbamimidoyl)-cyclohexylmethyl]-carbamoyl}-methyl)-2-[4-(N,N-dimethyl-carbamimidoyl)-benzyl]-N′,N′-dimethyl-malonamide] had a Ki in series [1] of 6 nM.

On to “TAP: tick anticoagulant peptide, isolated from the tick Ornithodoros moubata, contains 60 amino acids; inhibitor of factor Xa (YNRLCIKPRDWIDECDSNEGGERAYFRNGKGGCDSFWICPEDHTGADYYSSYRDCFNACI; UniProt P17726 1-60, looked up)”, for which, in series [2], the inhibition constant Ki was approximately 0.5 nM.

For the molecule heparin, the “thrombin inactivated faster than factor Xa” value in series [3] is reported as “approximately 100 times”.
